Data: patent US20110224300A1, “USE OF POTASSIUM 2-(a- HYDROXYPENTYL) BENZOATE IN THE MANUFACTURE OF MEDICAMENTS FOR PREVENTING AND/OR TREATING SENILE [sequence]” (Institute of Mataria Medica, Chinese Academy of Me, priority 2008, published 2011)
Marks after values point to notes of the source that are not given here.

Tests used:
[1] = system: permanent 2-VO rats (chronic cerebral hypoperfusion); assay: Morris water maze in permanent 2-VO (BCCAO) rats; assay type: in vivo, rat; details: for probe trial: time in the platform quadrant and time to cross the platform location / escape latency in the water maze task: 2-VO rats; for probe trial: time in the platform quadrant and time to cross the platform location: compared to 2-VO animals; for escape latency in the water maze task: vs vehicle
Description: Chronic cerebral hypoperfusion was proceeded by a permanent, bilateral occlusion of the common carotid arteries (2-VO) of adult rats. The rats were anesthetized with 10% trichloro-acetaldehyde, and temperature probe was inserted into the rectum, and a separate heating lamp was used to maintain rectal temperature at normothermic level. After a midline neck skin incision, the common carotid artery were exposed and ligated by a 5-0 nylon suture.
Rats were randomly divided into six experimental groups (20 rats/each group): one sham-operated group, one vehicle control group, one piracetam-treated group (600 mg/kg), and three dl-PHPB-treated groups (13, 39, and 129 mg/kg). In 10 days after onset of 2-VO, drugs and vehicle were administered orally to rats for 21 days (one time/each day). The spatial learning and memory capability of rats were detected by Morris water maze in the 25-30 days after operation. The Morris water test was commenced at 40 min after drugs treated. The biochemical and pathology assays were conducted later (in 24 h) after behavioral tests.
Subjects were tested in a Morris water maze. This test is based on a standardized assessment of spatial learning ability. The water maze apparatus consisted of a circular, stainless pool (120 cm in diameter, 60 cm in height). It was placed in a dimly lit, sound-proof test room. Multiple distant cues around the room (window, cabinets, furniture) were kept in the same location throughout the experiments. The water was filled to a depth of 40 cm at 25±1° C. and was made opaque by adding milk powder to prevent visualization of the platform. A transparent platform (10 cm diameter) was put 1.5 cm below the surface of the water. The tank was divided into four quadrants with the platform in a fixed position in one quadrant. The subjects were placed into the maze facing the pool wall and were allowed two trials per day, 60 s per trial, to find the hidden platform. If the subject found the platform within the 60 s, it was given a 10-s rest period on the platform between trials. If the pedestal was not located within the time allotted, the subject was placed on to the platform and allowed 10 s until the next trial. The escape latency (time to reach the platform) was used to assess acquisition of the water maze task. Sessions were repeated for five consecutive days. On the sixth day, the platform was removed and the rat was allowed to search for the platform for 60 s (probe test). The time in the platform quadrant and latency time to cross platform location were recorded to measure the spatial learning ability without the influence of chance encounters with the platform. The Morris water maze sessions were recorded with a video camera for offline analysis.

[2] = system: SOD; assay: SOD activity of brain tissues from Aβ(25-35)-induced dementia rats; assay type: in vivo, Male Wistar rats; details: Aβ(25-35) rats; for SOD activity in the cortex: 2 weeks, vehicle 286.8±18.3
Description: (§1) The biochemical assays were conducted later (in 24 h) after behavioral testing. Eight rats in each group were anesthetized with ether and sacrificed. The brains were quickly removed and cleaned with ice-cold saline. Then the parietal cortex and hippocampus were isolated. For biochemical analysis, the tissues were weighed and homogenized in ice-cold saline with the proportion of 1:9 (w/v). Homogenization (IKA, Germany) was carried out for 2 min in an ice bath. After the homogenates were centrifuged at 2,000×g for 10 min at 4° C. (Sigma, Germany), the supernatant was used for analytical procedures. The levels of choline acetyltransferase (ChAT) SOD, and MDA activities were determined with commercial colorimetric assay kits (Nanjing Jiancheng Bioengineering Institute, China). The content of protein in the supernatant was determined by Bradford method using BSA as standard.
(§2) Rats were divided into four experimental groups randomly (10 rats/each group): one sham-operated group, one vehicle control group, and two dl-PHPB-treated groups (39, and 129 mg/kg). At 1 days after operation, drugs and vehicle were administered orally to rats for 14 days (one time/each day). The spatial learning and memory abilities of rats were detected by Morris water maze in the 9-12 days after operation. The testing of Morris water was commenced at 40 min after drugs treated. The biochemical and pathology assays conducted later (in 24 h) after behavioral testing.
The methods as described previously.

[3] = system: MDA; assay: MDA level of brain tissues from Aβ(25-35)-induced dementia rats; assay type: in vivo, Male Wistar rats; details: Aβ(25-35) rats, 2 weeks, vehicle 5.43±0.55
Description: as §1
as §2, with “The biochemical and pathology assays conducted later (in 24 h) after behavioral testing.” left out

[4] = system: ChAT; assay: ChAT activity of brain tissues from Aβ(25-35)-induced dementia rats; assay type: in vivo, Male Wistar rats; details: Aβ(25-35) rats, 2 weeks
Description: as §1
as §2, with “The biochemical and pathology assays conducted later (in 24 h) after behavioral testing.” left out

[5] = dl-PHPB 13 mg/kg, 1st of 5 M/R/T/L column groups (day not printed)
[6] = dl-PHPB 13 mg/kg, 2nd of 5 M/R/T/L column groups (day not printed)
[7] = dl-PHPB 13 mg/kg, 3rd of 5 M/R/T/L column groups (day not printed)
[8] = dl-PHPB 13 mg/kg, 4th of 5 M/R/T/L column groups (day not printed)
[9] = dl-PHPB 13 mg/kg, 5th of 5 M/R/T/L column groups (day not printed)
[10] = dl-PHPB 39 mg/kg, 1st of 5 M/R/T/L column groups (day not printed)
[11] = dl-PHPB 39 mg/kg, 2nd of 5 M/R/T/L column groups (day not printed)
[12] = dl-PHPB 39 mg/kg, 3rd of 5 M/R/T/L column groups (day not printed)
[13] = dl-PHPB 39 mg/kg, 4th of 5 M/R/T/L column groups (day not printed)
[14] = dl-PHPB 39 mg/kg, 5th of 5 M/R/T/L column groups (day not printed)
[15] = dl-PHPB 129 mg/kg, 1st of 5 M/R/T/L column groups (day not printed)
[16] = dl-PHPB 129 mg/kg, 2nd of 5 M/R/T/L column groups (day not printed)
[17] = dl-PHPB 129 mg/kg, 3rd of 5 M/R/T/L column groups (day not printed)
[18] = dl-PHPB 129 mg/kg, 4th of 5 M/R/T/L column groups (day not printed)
[19] = dl-PHPB 129 mg/kg, 5th of 5 M/R/T/L column groups (day not printed)

CCCCC(O)c1ccccc1C(=O)[O-].[K+] (racemic) [dl-PHPB, Potassium 2-(1-Hydroxypentyl)-benzoate]
probe trial: time in the platform quadrant and time to cross the platform location ([1]; 13 mg/kg orally 21 days): markedly showed ameliorative effect
escape latency in the water maze task ([1]; 13 mg/kg orally daily for 21 days): did not differ from the vehicle control animals
probe trial: time in the platform quadrant and time to cross the platform location ([1]; 39 mg/kg orally 21 days): markedly showed ameliorative effect
escape latency in the water maze task ([1]; 39 mg/kg orally daily for 21 days): significantly rescued learning impairment
escape latency in the water maze task ([1]; 129 mg/kg orally daily for 21 days): significantly rescued learning impairment
search strategy times, linear mode (L) [1, 5]: 1
search strategy times, marginal mode (M) [1, 5]: 11
search strategy times, random mode (R) [1, 5]: 13
search strategy times, tendency mode (T) [1, 5]: 11
search strategy times, linear mode (L) [1, 6]: 6
search strategy times, marginal mode (M) [1, 6]: 3
search strategy times, random mode (R) [1, 6]: 11
search strategy times, tendency mode (T) [1, 6]: 16
search strategy times, linear mode (L) [1, 7]: 5
search strategy times, marginal mode (M) [1, 7]: 0
search strategy times, random mode (R) [1, 7]: 10
search strategy times, tendency mode (T) [1, 7]: 21
search strategy times, linear mode (L) [1, 8]: 7
search strategy times, marginal mode (M) [1, 8]: 0
search strategy times, random mode (R) [1, 8]: 9
search strategy times, tendency mode (T) [1, 8]: 20
search strategy times, linear mode (L) [1, 9]: 4
search strategy times, marginal mode (M) [1, 9]: 0
search strategy times, random mode (R) [1, 9]: 5
search strategy times, tendency mode (T) [1, 9]: 26
search strategy times, linear mode (L) [1, 10]: 2
search strategy times, marginal mode (M) [1, 10]: 7
search strategy times, random mode (R) [1, 10]: 15
search strategy times, tendency mode (T) [1, 10]: 12
search strategy times, linear mode (L) [1, 11]: 4
search strategy times, marginal mode (M) [1, 11]: 3
search strategy times, random mode (R) [1, 11]: 9
search strategy times, tendency mode (T) [1, 11]: 18
search strategy times, linear mode (L) [1, 12]: 3
search strategy times, marginal mode (M) [1, 12]: 1
search strategy times, random mode (R) [1, 12]: 13
search strategy times, tendency mode (T) [1, 12]: 17
search strategy times, linear mode (L) [1, 13]: 9
search strategy times, marginal mode (M) [1, 13]: 0
search strategy times, random mode (R) [1, 13]: 7
search strategy times, tendency mode (T) [1, 13]: 18
search strategy times, linear mode (L) [1, 14]: 17*
search strategy times, marginal mode (M) [1, 14]: 0
search strategy times, random mode (R) [1, 14]: 4
search strategy times, tendency mode (T) [1, 14]: 13
search strategy times, linear mode (L) [1, 15]: 4
search strategy times, marginal mode (M) [1, 15]: 4
search strategy times, random mode (R) [1, 15]: 16
search strategy times, tendency mode (T) [1, 15]: 10
search strategy times, linear mode (L) [1, 16]: 1
search strategy times, marginal mode (M) [1, 16]: 2
search strategy times, random mode (R) [1, 16]: 12
search strategy times, tendency mode (T) [1, 16]: 19
search strategy times, linear mode (L) [1, 17]: 6
search strategy times, marginal mode (M) [1, 17]: 0
search strategy times, random mode (R) [1, 17]: 7
search strategy times, tendency mode (T) [1, 17]: 21
search strategy times, linear mode (L) [1, 18]: 7
search strategy times, marginal mode (M) [1, 18]: 1
search strategy times, random mode (R) [1, 18]: 5
search strategy times, tendency mode (T) [1, 18]: 20
search strategy times, linear mode (L) [1, 19]: 9
search strategy times, marginal mode (M) [1, 19]: 0
search strategy times, random mode (R) [1, 19]: 2
search strategy times, tendency mode (T) [1, 19]: 23
SOD activity in the cortex ([2]; 39 mg/kg oral): 238.2±32.7 U/mg protein
SOD activity in the cortex ([2]; 129 mg/kg oral, P<0.01): 185.2±21.6 U/mg protein
SOD activity in the hippocampus ([2]; hippocampus): not significantly improved
cortex MDA level ([3]; 39 mg/kg oral, P<0.05): 3.62±0.21 nmol/mg protein
cortex MDA level ([3]; 129 mg/kg oral, P<0.01): 3.28±0.25 nmol/mg protein
cortical ChAT activity ([4]; 39 mg/kg, P<0.05): significantly increased the ChAT activity
cortical ChAT activity ([4]; 129 mg/kg): strong trend
